Data from the supplement of paper PMC10307832.

Key:
Test in all cases: relative viability (nuclei count vs DMSO), 5 days (fraction); higher = more cells survive
Nelarabine + Trametinib = compound: COc1nc(N)nc2c1ncn2[C@@H]1O[C@H](CO)[C@@H](O)[C@@H]1O [Nelarabine] + CC(=O)Nc1cccc(-n2c(=O)n(C3CC3)c(=O)c3c(Nc4ccc(I)cc4F)n(C)c(=O)c(C)c32)c1 [Trametinib] (partner 0.02 µM)
How it was run: (§1)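 For relative viability, nuclei counts in treated wells were divided by those in vehicle wells. Lung cancer cell lines had been pin-tool dosed in 1536-well plates the day after seeding and cultured for 5 days, then fixed and stained in one step (final 0.05% Triton X-100, 1% formaldehyde, 1 ug/ml Hoechst) and imaged at 4×. Doses were one drug alone or a fixed anchor-drug dose plus five library-drug doses (not always all listed) in √10 steps, and values are duplicate-plate medians.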

Adavosertib + Pictilisib = compound: C=CCn1c(=O)c2cnc(Nc3ccc(N4CCN(C)CC4)cc3)nc2n1-c1cccc(C(C)(C)O)n1 [Adavosertib] + CS(=O)(=O)N1CCN(Cc2cc3nc(-c4cccc5[nH]ncc45)nc(N4CCOCC4)c3s2)CC1 [Pictilisib] (partner 1 µM)
How it was run: as §1

Adavosertib + Decitabine = compound: C=CCn1c(=O)c2cnc(Nc3ccc(N4CCN(C)CC4)cc3)nc2n1-c1cccc(C(C)(C)O)n1 [Adavosertib] + Nc1ncn([C@H]2C[C@H](O)[C@@H](CO)O2)c(=O)n1 [Decitabine] (partner 2 µM)
How it was run: as §1

Nelarabine + AZD7762 = compound: COc1nc(N)nc2c1ncn2[C@@H]1O[C@H](CO)[C@@H](O)[C@@H]1O [Nelarabine] + NC(=O)Nc1cc(-c2cccc(F)c2)sc1C(=O)N[C@H]1CCCNC1 [AZD7762] (partner 0.2 µM)
How it was run: as §1

Cell Line | relative viability (Nelarabine + Trametinib; first compound 0.01 µM) | relative viability (Nelarabine + Trametinib; first compound 0.03162 µM) | relative viability (Nelarabine + Trametinib; first compound 0.1 µM) | relative viability (Nelarabine + Trametinib; first compound 0.3162 µM) | relative viability (Nelarabine + Trametinib; first compound 1 µM) | relative viability (Adavosertib + Pictilisib; first compound 0.01 µM) | relative viability (Adavosertib + Pictilisib; first compound 0.03162 µM) | relative viability (Adavosertib + Pictilisib; first compound 0.1 µM) | relative viability (Adavosertib + Pictilisib; first compound 0.3162 µM) | relative viability (Adavosertib + Decitabine; first compound 0.01 µM) | relative viability (Adavosertib + Decitabine; first compound 0.03162 µM) | relative viability (Adavosertib + Decitabine; first compound 0.1 µM) | relative viability (Adavosertib + Decitabine; first compound 0.3162 µM) | relative viability (Nelarabine + AZD7762; first compound 0.01 µM) | relative viability (Nelarabine + AZD7762; first compound 0.03162 µM) | relative viability (Nelarabine + AZD7762; first compound 0.1 µM) | relative viability (Nelarabine + AZD7762; first compound 0.3162 µM) | relative viability (Nelarabine + AZD7762; first compound 1 µM)
UMC-11 | 0.855 | 0.659 | 0.755 | 0.767 | 0.843 | 0.817 | 0.723 | 0.743 | 0.755 | 0.646 | 0.606 | 0.608 | 0.654 |  |  |  |  | 
NCI-H1975 | 0.355 | 0.35 | 0.36 | 0.396 | 0.381 | 0.267 | 0.279 | 0.261 | 0.19 | 0.37 | 0.412 | 0.439 | 0.399 | 0.964 | 0.799 | 0.778 | 0.701 | 0.766
NCI-H2405 | 0.642 | 0.612 | 0.528 | 0.677 | 0.643 | 0.466 | 0.412 | 0.437 | 0.373 |  | 0.761 | 0.794 | 0.698 | 0.837 | 0.647 | 0.71 | 0.736 | 0.81
NCI-H1734 | 0.829 | 0.615 | 0.666 | 0.666 | 0.627 | 0.41 | 0.434 | 0.478 | 0.31 | 0.501 | 0.511 | 0.474 | 0.363 | 0.699 | 0.5 | 0.484 | 0.603 | 0.531
NCI-H1993 | 0.531 | 0.48 | 0.479 | 0.487 | 0.588 | 0.858 | 0.818 | 0.932 | 0.719 | 0.58 | 0.593 | 0.617 | 0.585 | 0.845 | 0.438 | 0.642 | 0.841 | 0.692
NCI-H1792 | 0.541 | 0.513 | 0.418 | 0.373 | 0.508 | 0.294 | 0.224 | 0.233 | 0.272 | 0.507 | 0.596 | 0.645 | 0.669 | 0.854 | 0.69 | 1.1 | 0.68 | 0.6
NCI-H358 | 0.124 | 0.14 | 0.109 | 0.149 | 0.123 | 0.356 | 0.312 | 0.353 | 0.285 | 0.246 | 0.201 | 0.188 | 0.193 | 0.605 | 0.395 | 0.386 | 0.501 | 0.586
Calu-6 |  |  |  |  |  | 0.922 | 0.875 | 0.788 | 0.333 |  |  |  |  |  |  |  |  | 
PC-14 | 0.894 | 0.87 | 0.766 | 0.844 | 0.774 | 0.72 | 0.64 | 0.569 | 0.272 | 0.249 | 0.226 | 0.259 | 0.101 | 0.382 | 0.319 | 0.447 | 0.417 | 0.304
NCI-H520 | 0.817 | 0.599 | 0.757 | 0.903 | 0.697 | 0.288 | 0.286 | 0.381 | 0.269 | 0.488 | 0.525 | 0.555 | 0.473 |  |  |  |  | 
IA-LM |  |  |  |  |  | 0.363 | 0.404 | 0.418 | 0.365 |  |  |  |  |  |  |  |  | 
CAL-12T | 0.351 | 0.314 | 0.404 | 0.352 | 0.347 |  | 0.396 | 0.412 | 0.274 |  |  |  |  | 0.721 | 0.642 | 0.685 | 0.58 | 0.561
A549 |  |  |  |  |  | 0.505 | 0.513 | 0.554 | 0.382 | 0.28 | 0.257 | 0.298 | 0.291 |  |  |  |  | 
NCI-H1648 |  | 0.656 |  | 0.451 | 0.477 |  |  |  |  | 0.491 | 0.527 | 0.448 | 0.422 |  | 0.597 |  | 0.638 | 0.664
NCI-H2009 | 0.28 | 0.224 | 0.215 | 0.287 | 0.266 | 0.766 | 0.847 | 0.68 | 0.395 | 0.362 | 0.419 | 0.414 | 0.37 |  |  |  |  | 
SK-LU-1 | 0.523 | 0.42 | 0.421 | 0.558 | 0.514 | 0.649 | 0.532 | 0.456 | 0.242 | 0.616 | 0.64 | 0.631 | 0.461 |  |  |  |  | 
ABC-1 |  |  |  |  |  | 0.586 | 0.695 | 0.528 | 0.627 | 1.28 | 1.04 | 1.17 | 0.959 |  | 0.839 | 0.766 | 0.845 | 0.78
SW 900 | 0.642 | 0.778 | 0.765 | 0.777 | 0.753 |  |  |  |  | 0.442 | 0.464 | 0.461 | 0.312 | 0.636 | 0.569 | 0.556 | 0.645 | 0.535
SW 1573 | 0.667 | 0.599 | 0.566 | 0.631 | 0.512 | 0.482 | 0.525 | 0.58 | 0.343 | 0.503 | 0.535 | 0.663 | 0.291 |  |  |  |  | 
NCI-H2228 | 0.575 | 0.469 | 0.29 | 0.55 | 0.668 | 0.695 | 0.45 | 0.448 | 0.305 |  |  |  |  |  |  |  |  | 
EBC-1 |  |  |  |  |  | 0.387 | 0.429 | 0.382 | 0.286 |  |  |  |  |  |  |  |  | 
NCI-H2342 | 0.87 | 0.825 | 0.847 | 0.701 | 0.907 |  |  |  |  | 0.72 | 0.768 | 0.755 | 0.932 | 0.508 | 0.5 | 0.439 | 0.555 | 0.464
NCI-H1563 |  |  |  |  |  | 0.631 | 0.62 | 0.609 | 0.625 |  |  |  |  |  |  |  |  | 
COR-L23 | 0.779 | 0.558 | 0.516 | 0.612 | 0.777 | 0.665 | 0.636 | 0.722 | 0.266 | 0.45 | 0.523 | 0.45 | 0.277 |  |  |  |  | 
COR-L 105 | 0.351 | 0.398 | 0.448 | 0.383 | 0.482 | 0.415 | 0.384 | 0.356 | 0.393 | 0.691 | 0.6 | 0.618 | 0.651 |  |  |  |  | 
NCI-H1299 |  |  |  |  |  | 0.982 | 0.66 | 0.541 | 0.123 |  |  |  |  |  |  |  |  | 
